# From US6603023B2 (priority 1996, dated 2003)
# Marks after values point to notes of the source that are not given here.
# Experiments:
# [1] = test system: Human Lymphoblastic Leukemia CCRF-CEM; test: CCRF-CEM xenograft in nude mice, i.v. 6 h infusion; type: in vivo; conditions: for Average Body Weight, Day 21: initial weight
# [2] = test system: MDR human mammary adenocarcinoma MCF-7/Adr xenograft; test: in vivo; conditions: for toxicity: dEpoB 35 mg/kg Q2Dx5 i.p.
# Description: (§1) DMSO was used as a vehicle for epothilones. Each mouse received ≦40 μL DMSO in all experiments.
# (§2) Athymic nude mice (nu/nu) were used for MX-1 and MCF-7/Adr human mammary carcinoma xenografts. Mice were obtained from Taconic Laboratory Animals and Service (Germantown, N.Y.: outbred, Swiss background).
# CCRF-CEM/Taxol® = test: CCRF-CEM/Taxol xenograft, i.v. 6 h infusion; type: in vivo, nude mice; conditions: for Lowest Average Tumor Size (T/C) / Tumor Disappearance: dEpoB 30 mg/kg Q2D x 6, Taxol 15 mg/kg Q2D x 6
# Text: Treatment on days 6, 8, 10, 12 and 14.
# Treatment on days 19, 21, 23, 25, 27, 39, 41, 43, 45 and 47.
# [3] = Stability in human plasma (HPLC); type: in vitro ADME
# Description: Sample Preparation. To 300 microliters of spiked plasma are added 30 microliters of methanol. The mixture is agitated and allowed to stand for 2 minutes. Then 600 microliters of methanol are added. The mixture is centrifuged. The supernatant is removed for analysis by HPLC. Analyses were performed under the following chrmotographic conditions: Column: Nova-Pak C18, 15 cm. Eluant: 50% acetonitrile/water with 0.8% triethylamine, 0.2% phosphoric acid. Detection: UV (250 nm).
# [4] = Hematology and blood chemistry toxicity in MX-1 bearing mice; conditions: day 30; dEpoB 25 mg/kg i.p. day 7-15 then 35 mg/kg day 17-25; Taxol 5 then 6 mg/kg; MX-1 bearing nude mice
# in vivo = conditions: male, athymic nude (nu/nu), outbred, Swiss background, mouse, in vivo, ip
# Description: as §1, §2
# [5] = CCRF/CEM Leukemia, dEpoB 30 mg/kg Q2D x 5, Taxol 15 mg/kg Q2D x 5
# [6] = 35 mg/kg i.p. Q2Dx5 from day 8, day 11
# [7] = 35 mg/kg i.p. Q2Dx5 from day 8, day 13
# [8] = 35 mg/kg i.p. Q2Dx5 from day 8, day 15
# [9] = 35 mg/kg i.p. Q2Dx5 from day 8, day 17
# [10] = Dose DesoxyepoB 40, Taxol 20, i.v. infusion 6 hr on day 21,23,25,27
# [11] = Table 26, Dose Q2D x 4: DesoxyepoB 40, Taxol 20
# [12] = MCF-7/Adr Breast, dEpoB 30 mg/kg Q2D x 5, Taxol 24 mg/kg Q2D x 5
# [13] = Taxol 24 mg/kg, 6 hr i.v. infusion Q2D x 5 (day 8-16)
# [14] = dEpo B 30, Taxol 15 mg/kg, 6 hr i.v. infusion Q2D x 5 (day 8-16)
# [15] = high doses: Taxol 12, Adriamycin 3, Camptothecin 3.0 mg/kg i.p. day 8,10,12,14,16
# [16] = male, athymic nude (nu/nu), outbred, Swiss background, mouse, in vivo
structure (smiles),measurement,setting,value
"C/C1=C/C[C@@H](/C(C)=C/c2csc(C)n2)OC(=O)C[C@H](O)C(C)(C)C(=O)[C@H](C)[C@@H](O)[C@@H](C)CCC1 [Desoxyepothilone B, desoxyepothilone B]",Therapeutic effect Rank Order,"[1]; CCRF-CEM, i.v. infusion",dEpoB ≈ Taxol ®
same,Lowest Average Tumor Size (T/C),[1]; [5],0 T/C
same,Tumor Disappearance,[1]; [5],2/2
same,Therapeutic Effects dEpoB vs Taxol,"[1]; CCRF/CEM Leukemia, dEpoB 30 mg/kg Q2D x 5 vs Taxol 15 mg/kg Q2D x 5",≅
same,Toxicity Death,[2]; 35 mg/kg i.p. Q2Dx5 from day 8,0/8
same,Average Body Weight Change,[2]; [6],0.3 g
same,Average Tumor Size (T/C),[2]; [6],0.31**
same,Average Body Weight Change,[2]; [7],+0.7 g
same,Average Tumor Size (T/C),[2]; [7],0.27***
same,Average Body Weight Change,[2]; [8],+0.6 g
same,Average Tumor Size (T/C),[2]; [8],0.30***
same,Average Body Weight Change,[2]; [9],+0.8 g
same,Average Tumor Size (T/C),[2]; [9],0.34*
same,tumor size reduction,"[2]; 35 mg/kg, day 17",66%
same,therapeutic outcome,"[2]; 6 hr i.v. infusion, Q2Dx5","far better than Taxol®, although Q2Dx5 did not achieve a cure"
same,toxicity,[2]; listed as dEpoB,negligible toxicity
same,toxicity,[2]; listed as desoxyepothilone B,no reduction in body weight or apparent toxicity
same,"Average Body Weight (change), Day 14","[2]; mouse, in vivo",-2.7 g
same,"Average Body Weight (change), Day 16","[2]; mouse, in vivo",-4.0 g
same,"Average Body Weight (change), Day 18","[2]; mouse, in vivo",-4.5 g
same,"Average Body Weight, Day 8","[2]; mouse, in vivo",30.3 g
same,"Average Tumor Size (T/C), Day 14","[2]; mouse, in vivo",0.16*** T/C
same,"Average Tumor Size (T/C), Day 16","[2]; mouse, in vivo",0.15 T/C
same,"Average Tumor Size (T/C), Day 18","[2]; mouse, in vivo",0.13*** T/C
same,Lowest Average Tumor Size (T/C),"[2]; mouse, in vivo",0.11 T/C
same,Therapeutic Effects dEpoB vs Taxol,"[2]; mouse, in vivo",>>
same,Toxicity Death,"[2]; mouse, in vivo",0/3
same,Tumor Disappearance,"[2]; mouse, in vivo",0
same,Therapeutic effect Rank Order,"[2]; mouse, in vivo, ip",dEpoB >> Camptothecin >
same,Therapeutic effect Rank Order,"[2]; mouse, in vivo, iv","dEpoB >> VP-16,"
same,therapeutic outcome,CCRF-CEM/Taxol®; 6 hr i.v. infusion,full cure
same,Therapeutic effect Rank Order,"CCRF-CEM/Taxol®; CCRF-CEM/Taxol, i.v. infusion",dEpoB >>> Taxol ®
same,Lowest Average Tumor Size (T/C),CCRF-CEM/Taxol®; CCRF/Taxol Leukemia,0 T/C
same,Tumor Disappearance,CCRF-CEM/Taxol®; CCRF/Taxol Leukemia,3/3
same,Therapeutic Effects dEpoB vs Taxol,"CCRF-CEM/Taxol®; CCRF/Taxol Leukemia, dEpoB 30 mg/kg Q2D x 6 vs Taxol 15 mg/kg Q2D x 6",>>>
same,half-life in human plasma,[3],about 75 hours
same,GOT,[4],296 U/L
same,GPT,[4],55 (n = 3) U/L
same,WBC Lymph,[4],48%
same,WBC Neutrophils,[4],48%
same,WBC Total,[4],11.8 10^3/mm^3
"CC(=O)O[C@H]1C(=O)[C@@]2(C)[C@H]([C@H](OC(=O)c3ccccc3)[C@]3(O)C[C@H](OC(=O)[C@H](O)[C@@H](NC(=O)c4ccccc4)c4ccccc4)C(C)=C1C3(C)C)[C@]1(OC(C)=O)CO[C@@H]1C[C@@H]2O [Taxol ®, paclitaxel]",Tumor Disappearance,[1]; [5],2/2
same,"Average Body Weight Changes, Day 23",[1]; [10],-0.1 g
same,"Average Body Weight Changes, Day 25",[1]; [10],-1.9 g
same,"Average Body Weight Changes, Day 27",[1]; [10],-2.9 g
same,"Average Body Weight Changes, Day 29",[1]; [10],-3.0 g
same,"Average Body Weight Changes, Day 31",[1]; [10],-3.6 g
same,"Average Body Weight Changes, Day 33",[1]; [10],-2.6 g
same,"Average Body Weight Changes, Day 35",[1]; [10],-0.5 g
same,"Average Body Weight Changes, Day 37",[1]; [10],+1.2 g
same,"Average Body Weight Changes, Day 39",[1]; [10],+1.3 g
same,"Average Body Weight Changes, Day 41",[1]; [10],+2.1 g
same,"Average Tumor Size (T/C), Day 21",[1]; [10],1.17 T/C
same,"Average Tumor Size (T/C), Day 23",[1]; [10],0.78 T/C
same,"Average Tumor Size (T/C), Day 25",[1]; [10],0.44 T/C
same,"Average Tumor Size (T/C), Day 27",[1]; [10],0.11 T/C
same,"Average Tumor Size (T/C), Day 29",[1]; [10],0 T/C
same,"Average Tumor Size (T/C), Day 31",[1]; [10],0 T/C
same,"Average Tumor Size (T/C), Day 33",[1]; [10],0 T/C
same,"Average Tumor Size (T/C), Day 35",[1]; [10],0 T/C
same,"Proportion of Tumor Disappearance (n/total), Day 21",[1]; [10],0/4
same,"Proportion of Tumor Disappearance (n/total), Day 23",[1]; [10],0/4
same,"Proportion of Tumor Disappearance (n/total), Day 25",[1]; [10],0/4
same,"Proportion of Tumor Disappearance (n/total), Day 27",[1]; [10],1/4
same,"Proportion of Tumor Disappearance (n/total), Day 29",[1]; [10],4/4
same,"Proportion of Tumor Disappearance (n/total), Day 31",[1]; [10],4/4
same,"Proportion of Tumor Disappearance (n/total), Day 33",[1]; [10],4/4
same,"Proportion of Tumor Disappearance (n/total), Day 35",[1]; [10],1/4
same,"Proportion of Tumor Disappearance (n/total), Day 37",[1]; [10],0/4
same,"Proportion of Tumor Disappearance (n/total), Day 39",[1]; [10],0/4
same,"Proportion of Tumor Disappearance (n/total), Day 41",[1]; [10],0.4
same,"Average Body Weight Change, Day 23",[1]; [11],-0.1 g
same,"Average Body Weight Change, Day 25",[1]; [11],-1.9 g
same,"Average Body Weight Change, Day 27",[1]; [11],-2.9 g
same,"Average Body Weight Change, Day 29",[1]; [11],-3.0 g
same,"Average Body Weight Change, Day 31",[1]; [11],-3.6 g
same,"Average Tumor Size (T/C), Day 23",[1]; [11],0.78 T/C
same,"Average Tumor Size (T/C), Day 25",[1]; [11],0.44 T/C
same,"Average Tumor Size (T/C), Day 27",[1]; [11],0.11 T/C
same,"Average Tumor Size (T/C), Day 29",[1]; [11],0 T/C
same,"Average Tumor Size (T/C), Day 31",[1]; [11],0 T/C
same,Tumor Disappearance,[1]; [11],4/4
same,"Average Body Weight, Day 21",[1]; [11],29.0 g
same,"Average Body Weight, Day 21",[1]; [10],29.0 g
same,Lowest Average Tumor Size (T/C),[2]; [12],0.71 T/C
same,Tumor Disappearance,[2]; [12],0
same,tumor size reduction,"[2]; Taxol 6 mg/kg i.p. Q2Dx5, day 17",100%
same,"Average Body Weight (change), Day 14",[2]; [13],-4.8 g
same,"Average Body Weight (change), Day 16",[2]; [13],-5.3 g
same,"Average Body Weight (change), Day 18",[2]; [13],-6.0 g
same,"Average Tumor Size (T/C), Day 14",[2]; [13],0.73 T/C
same,"Average Tumor Size (T/C), Day 16",[2]; [13],0.71* T/C
same,"Average Tumor Size (T/C), Day 18",[2]; [13],0.73* T/C
same,"Average Tumor Size (T/C), Day 14",[2]; [14],0.81 T/C
same,"Average Tumor Size (T/C), Day 16",[2]; [14],0.89 T/C
same,"Average Tumor Size (T/C), Day 18",[2]; [14],0.76 T/C
same,"Average Tumor Volume (T/C), Day 11",[2]; [15],0.50 T/C
same,"Average Tumor Volume (T/C), Day 13",[2]; [15],0.51 T/C
same,"Average Tumor Volume (T/C), Day 15",[2]; [15],0.32 T/C
same,"Average Tumor Volume (T/C), Day 17",[2]; [15],0.40 T/C
same,Toxicity Death,[2]; [16],0/4
same,lethality,[2]; [16],3/7
same,tumor growth suppression,[2]; paclitaxel 5 mg/kg (so in the source),slight growth suppression
same,LD50,in vivo,12 mg/kg
same,Lowest Average Tumor Size (T/C),CCRF-CEM/Taxol®; CCRF/Taxol Leukemia,1.09 T/C
same,Tumor Disappearance,CCRF-CEM/Taxol®; CCRF/Taxol Leukemia,0
same,GOT,[4],438 U/L
same,GPT,[4],79 (n = 5) U/L
same,WBC Lymph,[4],48%
same,WBC Neutrophils,[4],51%
same,WBC Total,[4],10.9 10^3/mm^3
